Each structure is given as a SMILES string.

Sequence of wild-type human cardiac sodium channel, hNav1.5 (Q14524 whole entry): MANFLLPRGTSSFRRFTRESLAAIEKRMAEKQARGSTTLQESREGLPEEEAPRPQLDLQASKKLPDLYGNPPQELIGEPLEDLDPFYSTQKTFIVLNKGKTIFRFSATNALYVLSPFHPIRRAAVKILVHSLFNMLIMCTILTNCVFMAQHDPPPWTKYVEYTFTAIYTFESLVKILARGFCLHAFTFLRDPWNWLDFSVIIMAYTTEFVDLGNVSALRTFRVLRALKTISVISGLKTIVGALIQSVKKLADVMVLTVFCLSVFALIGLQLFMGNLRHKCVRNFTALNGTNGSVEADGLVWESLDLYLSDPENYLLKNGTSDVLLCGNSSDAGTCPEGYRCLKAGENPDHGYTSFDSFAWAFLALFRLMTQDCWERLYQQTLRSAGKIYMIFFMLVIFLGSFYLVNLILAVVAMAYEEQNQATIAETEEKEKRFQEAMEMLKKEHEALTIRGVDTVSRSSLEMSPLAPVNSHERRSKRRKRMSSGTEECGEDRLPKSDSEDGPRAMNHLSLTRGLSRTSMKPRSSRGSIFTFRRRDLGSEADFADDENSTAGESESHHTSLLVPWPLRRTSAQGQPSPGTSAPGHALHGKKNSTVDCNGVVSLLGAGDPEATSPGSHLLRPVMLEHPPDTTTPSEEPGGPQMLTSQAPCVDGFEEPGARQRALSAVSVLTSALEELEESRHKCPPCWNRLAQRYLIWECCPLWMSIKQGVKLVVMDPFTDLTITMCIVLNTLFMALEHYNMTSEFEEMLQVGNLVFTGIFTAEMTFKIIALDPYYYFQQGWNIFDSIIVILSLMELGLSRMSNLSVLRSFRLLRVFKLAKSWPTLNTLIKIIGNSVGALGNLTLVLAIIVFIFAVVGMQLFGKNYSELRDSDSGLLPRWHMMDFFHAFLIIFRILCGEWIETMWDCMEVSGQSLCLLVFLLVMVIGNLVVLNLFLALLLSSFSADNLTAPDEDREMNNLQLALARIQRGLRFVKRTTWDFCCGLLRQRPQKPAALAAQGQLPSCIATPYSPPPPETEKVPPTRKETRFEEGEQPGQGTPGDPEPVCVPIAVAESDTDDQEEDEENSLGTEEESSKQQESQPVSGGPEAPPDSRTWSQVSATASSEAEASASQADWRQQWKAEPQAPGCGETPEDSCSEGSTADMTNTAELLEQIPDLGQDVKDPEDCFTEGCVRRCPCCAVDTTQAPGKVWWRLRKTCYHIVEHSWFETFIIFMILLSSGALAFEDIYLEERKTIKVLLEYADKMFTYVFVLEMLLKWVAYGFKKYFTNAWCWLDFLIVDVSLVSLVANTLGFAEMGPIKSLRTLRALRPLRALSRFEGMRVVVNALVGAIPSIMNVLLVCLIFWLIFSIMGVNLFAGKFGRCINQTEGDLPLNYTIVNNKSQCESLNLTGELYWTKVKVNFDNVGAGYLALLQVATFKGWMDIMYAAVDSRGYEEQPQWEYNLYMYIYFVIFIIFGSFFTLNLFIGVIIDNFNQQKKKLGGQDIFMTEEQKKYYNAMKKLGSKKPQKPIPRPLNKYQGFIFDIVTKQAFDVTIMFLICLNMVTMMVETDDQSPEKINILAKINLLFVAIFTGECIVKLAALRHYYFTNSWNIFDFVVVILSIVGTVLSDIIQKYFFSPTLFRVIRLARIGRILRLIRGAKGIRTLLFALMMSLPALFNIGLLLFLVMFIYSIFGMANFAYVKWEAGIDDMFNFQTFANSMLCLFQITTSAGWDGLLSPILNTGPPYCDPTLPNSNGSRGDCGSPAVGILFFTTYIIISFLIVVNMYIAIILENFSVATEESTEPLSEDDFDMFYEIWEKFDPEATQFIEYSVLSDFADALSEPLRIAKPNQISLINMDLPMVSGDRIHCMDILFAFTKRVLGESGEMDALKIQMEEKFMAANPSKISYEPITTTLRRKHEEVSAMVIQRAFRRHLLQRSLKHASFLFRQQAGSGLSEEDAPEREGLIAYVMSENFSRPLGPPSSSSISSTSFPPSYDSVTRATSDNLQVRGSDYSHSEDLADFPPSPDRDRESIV

The target in one test is wild-type human cardiac sodium channel, hNav1.5 (Homo sapiens, UniProt Q14524). In words: Late INa screening assay (late sodium current, PatchXpress whole cell patch clamp). As to conditions: compound at 10 μM; read-out: Late INa % blk. Format: cell-based. The protocol:
The late sodium current (Late INa) and peak sodium current (Peak INa) assays are performed on an automated electrophysiology platform, PatchXpress 7000A (MDS Analytical Technologies, Sunnyvale, Calif.), which uses the whole cell patch clamp technique to measure currents through the cell membrane of up to 16 cells at a time. The assay uses an HEK293 (human embryonic kidney) cell line heterologously expressing the wild-type human cardiac sodium channel, hNav1.5, purchased from Millipore (Billerica, Mass.). No beta subunits were coexpressed with the Na channel alpha subunit. […] Experiments are carried out at 24-27° C.
For both the Late INa and Peak INa assays, series resistance compensation is set to 50% and whole-cell compensation is performed automatically. […] Currents through open sodium channels are automatically recorded and stored in the DataXpress2 database (MDS Analytical Technologies, Sunnyvale, Calif.). Analysis is performed using DataXpress2 analysis software and data are compiled in Excel.
Compound stocks are routinely made in glass vials to 10 mM in dimethyl sulfoxide (DMSO). In some cases, when compounds are not soluble in DMSO, they are made in 100% ethanol. Stocks are sonicated as necessary. The extracellular solution for screening Late INa is composed of: 140 mM NaCl, 4 mM KCl, 1.8 mM CaCl2, 0.75 mM MgCl2, and 5 mM HEPES with pH adjusted to 7.4 using NaOH. The extracellular solution for screening Peak INa is composed of: 20 mM NaCl, 120 mM N-methyl-D glucamine, 4 mM KCl, 1.8 mM CaCl2, 0.75 mM MgCl2, and 5 mM HEPES with pH adjusted to 7.4 using HCl. The intracellular solution used to perfuse the inside of the cells for both the Late INa and Peak INa assays contains: 120 mM CsF, 20 mM CsCl, 5 mM EGTA, 5 mM HEPES and pH adjusted to 7.4 with CsOH. Compounds are diluted in extracellular solution to 10 μM in glass vials and then transferred to glass well plates before robotic addition to the cells. The 0 Na extracellular solution used at the end of each experiment for the Late INa and Peak INa assays to measure baseline current contains: 140 mM N-methyl-D-glucamine; 4 mM KCl; 1.8 mM CaCl2; 0.75 mM MgCl2; 5 mM HEPES and pH was adjusted to 7.4 with HCl.
For the Late INa assay, sodium channels are activated every 10 seconds (0.1 Hz) by depolarizing the cell membrane to −20 mV for 250 milliseconds (ms) from a holding potential of −120 mV.
All compounds are tested to determine their activity in blocking the late sodium current. Late INa current is generated by adding 10 μM Tefluthrin (pyrethroid) to the extracellular solution while recording Na currents. […] For some experiments, 50 nM ATX II (sea anemone toxin), another late INa activator, was used to generate the late component. […] Baseline current in the absence of Na^+ ions is measured at the end of each experiment (after two additions of 0 Na solution-see above) and is used to calculate the percent block by compound.
For the compound `CC1=C(C(=O)OCc2ccccc2)C(c2cc3ccccc3s2)n2nnnc2N1` (centres unmarked) [PT-043, benzyl 7-(benzo[b]thiophen-2-yl)-5-methyl-4,7-dihydrotetrazolo[1,5-a]pyrimidine-6-carboxylate], the inhibition at 10 µM was found to be 53.8%.

With `CC1=C(C(=O)OCc2ccc(C#N)cc2)C(c2cccc3ccccc23)n2nnnc2N1` (centres unmarked) [PT-046, 4-cyanobenzyl 5-methyl-7-(naphthalen-1-yl)-4,7-dihydrotetrazolo[1,5-a]pyrimidine-6-carboxylate], the inhibition at 10 µM was determined as 67%. On the same count and under the same terms, under `CC1=C(C(=O)O[C@@H](C)c2ccccc2)[C@H](c2cccc3ccccc23)n2nnnc2N1` [PT-049, (S)-((S)-1-phenylethyl) 5-methyl-7-(naphthalen-1-yl)-4,7-dihydrotetrazolo[1,5-a]pyrimidine-6-carboxylate] stands 35.4%. Same read-out and setting: under `CC1=C(C(=O)OCc2ccc(OC(F)(F)F)cc2)C(c2cccc3ccccc23)n2nnnc2N1` (centres unmarked) [PT-052, 4-(trifluoromethoxy)benzyl 5-methyl-7-(naphthalen-1-yl)-4,7-dihydrotetrazolo[1,5-a]pyrimidine-6-carboxylate] stands 9.1%.

For the compound `COc1ccc2ccccc2c1C1C(C(=O)O[C@@H](C)c2ccccc2)=C(C)Nc2nnnn21` (stereo partly drawn) [PT-053, (S)-1-phenylethyl 7-(2-methoxynaphthalen-1-yl)-5-methyl-4,7-dihydrotetrazolo[1,5-a]pyrimidine-6-carboxylate], the inhibition at 10 µM amounted to 53.6%. The same measure, in the same setting: under `CC1=C(C(=O)O[C@@H](C)c2ccccc2)C(c2ccc(N(C)C)c3ccccc23)n2nnnc2N1` (stereo partly drawn) [PT-054, (S)-1-phenylethyl 7-(4-(dimethylamino)naphthalen-1-yl)-5-methyl-4,7-dihydrotetrazolo[1,5-a]pyrimidine-6-carboxylate] stands 72.4%. The same measure, in the same setting: under `CC1=C(C(=O)O[C@@H](C)c2ccccc2)C(c2cc3ccccc3o2)n2nnnc2N1` (stereo partly drawn) [PT-058, (S)-1-phenylethyl 7-(benzofuran-2-yl)-5-methyl-4,7-dihydrotetrazolo[1,5-a]pyrimidine-6-carboxylate] stands 71.4%; under `CC1=C(C(=O)OCc2ccc(-c3nnn[nH]3)cc2)C(c2cccc3ccccc23)n2nnnc2N1` (centres unmarked) [PT-060, 4-(1H-tetrazol-5-yl)benzyl 5-methyl-7-(naphthalen-1-yl)-4,7-dihydrotetrazolo[1,5-a]pyrimidine-6-carboxylate], 5.6%. Regarding `CCC(OC(=O)C1=C(C)Nc2nnnn2C1c1cccc2ccccc12)c1ccccc1` (centres unmarked) [PT-063, 1-phenylpropyl 5-methyl-7-(naphthalen-1-yl)-4,7-dihydrotetrazolo[1,5-a]pyrimidine-6-carboxylate], the inhibition at 10 µM was 47.5%. The same measure, in the same setting: under `CC1=C(C(=O)OC(C)(C)c2ccccc2)C(c2cccc3ccccc23)n2nnnc2N1` (centres unmarked) [PT-065, 2-phenylpropan-2-yl 5-methyl-7-(naphthalen-1-yl)-4,7-dihydrotetrazolo[1,5-a]pyrimidine-6-carboxylate] stands 59%.

Regarding `CC1=C(C(=O)N2CCC(c3ccccc3)CC2)C(c2cccc3ccccc23)n2nnnc2N1` (centres unmarked) [PT-066, (5-methyl-7-(naphthalen-1-yl)-4,7-dihydrotetrazolo[1,5-a]pyrimidin-6-yl)(4-phenylpiperidin-1-yl)methanone], the inhibition at 10 µM came to 22.2%. The same measure, in the same setting: under `CC1=C(C(=O)NCc2ccccc2)C(c2cccc3ccccc23)n2nnnc2N1` (centres unmarked) [PT-067, N-benzyl-5-methyl-7-(naphthalen-1-yl)-4,7-dihydrotetrazolo[1,5-a]pyrimidine-6-carboxamide] stands 24.4%. Same read-out and setting: under `CC1=C(C(=O)NNC(=O)c2ccccc2)C(c2cccc3ccccc23)n2nnnc2N1` (centres unmarked) [PT-069, N′-benzoyl-5-methyl-7-(naphthalen-1-yl)-4,7-dihydrotetrazolo[1,5-a]pyrimidine-6-carbohydrazide] stands 11.5%; under `CC1=C(C(=O)N[C@H](C)c2ccccc2)C(c2cccc3ccccc23)n2nnnc2N1` (stereo partly drawn) [PT-070, 5-methyl-7-(naphthalen-1-yl)-N-((R)-1-phenylethyl)-4,7-dihydrotetrazolo[1,5-a]pyrimidine-6-carboxamide], 9.9%; under `CC1=C(C(=O)N[C@@H](C)c2ccccc2)C(c2cccc3ccccc23)n2nnnc2N1` (stereo partly drawn) [PT-071, 5-methyl-7-(naphthalen-1-yl)-N-((S)-1-phenylethyl)-4,7-dihydrotetrazolo[1,5-a]pyrimidine-6-carboxamide], 16.3%. On the same count and under the same terms, under `O=C1CCCC2=C1C(c1cccc3ccccc13)n1nnnc1N2` (centres unmarked) [PT-072, 9-(naphthalen-1-yl)-5,6,7,9-tetrahydrotetrazolo[5,1-b]quinazolin-8(4H)-one] stands -0.9%; under `CCOC(=O)C1=C(C)Nc2[nH]nc(-c3ccc(C)cc3)c2C1c1cccc2ccccc12` (centres unmarked) [PT-073, ethyl 6-methyl-4-(naphthalen-1-yl)-3-p-tolyl-4,7-dihydro-1H-pyrazolo[3,4-b]pyridine-5-carboxylate], -3.2%; under `CCOC(=O)C1=C(C)Nc2[nH]ncc2C1c1cccc2ccccc12` (centres unmarked) [PT-075, ethyl 6-methyl-4-(naphthalen-1-yl)-4,7-dihydro-1H-pyrazolo[3,4-b]pyridine-5-carboxylate], 26.5%. As for `CC1=C(C(=O)OCc2ccccc2)C(c2cccc3ccccc23)c2c(-c3cccs3)n[nH]c2N1` (centres unmarked) [PT-076, benzyl 6-methyl-4-(naphthalen-1-yl)-3-(thiophen-2-yl)-4,7-dihydro-1H-pyrazolo[3,4-b]pyridine-5-carboxylate], the inhibition at 10 µM was -4.3%. Still for that read-out and setting: under `CC1=C(C(=O)OCc2ccccc2)C(c2cccc3ccccc23)c2c(-c3ccc(C)cc3)n[nH]c2N1` (centres unmarked) [PT-077, benzyl 6-methyl-4-(naphthalen-1-yl)-3-p-tolyl-4,7-dihydro-1H-pyrazolo[3,4-b]pyridine-5-carboxylate] stands -2.6%; under `Cc1n[nH]c2c1C(c1cccc3ccccc13)C1=C(COC1=O)N2` (centres unmarked) [PT-081, 3-methyl-4-(naphthalen-1-yl)-7,8-dihydro-1H-furo[3,4-e]pyrazolo[3,4-b]pyridin-5(4H)-one], 16.6%; under `O=C1OCC2=C1C(c1cccc3ccccc13)c1cnn(-c3ccccc3)c1N2` (centres unmarked) [PT-082, 4-(naphthalen-1-yl)-1-phenyl-7,8-dihydro-1H-furo[3,4-e]pyrazolo[3,4-b]pyridin-5(4H)-one], 43.1%. On to `Cc1nn(-c2ccccc2)c2c1C(c1cccc3ccccc13)C1=C(COC1=O)N2` (centres unmarked) [PT-083, 3-methyl-4-(naphthalen-1-yl)-1-phenyl-7,8-dihydro-1H-furo[3,4-e]pyrazolo[3,4-b]pyridin-5(4H)-one], for which the inhibition at 10 µM turned out to be 30%. Still for that read-out and setting: under `O=C1OCC2=C1C(c1cccc3ccccc13)c1cn[nH]c1N2` (centres unmarked) [PT-084, 4-(naphthalen-1-yl)-7,8-dihydro-1H-furo[3,4-e]pyrazolo[3,4-b]pyridin-5(4H)-one] stands 16.9%; under `CCOC(=O)C1=C(C)Nc2nccn2C1c1cccc2ccccc12` (centres unmarked) [PT-087, ethyl 7-methyl-5-(naphthalen-1-yl)-5,8-dihydroimidazo[1,2-a]pyrimidine-6-carboxylate], 16.5%; under `CCOC(=O)C1=C(C)OC(N)=C(C#N)C1c1ccco1` (centres unmarked) [PT-092, ethyl 6-amino-5-cyano-4-(furan-2-yl)-2-methyl-4H-pyran-3-carboxylate], -0.2%.

Staying with this test, now noted: read-out: Late INa % blk.
Take `Cc1ccc(-c2n[nH]c3c2C(c2cccc4ccccc24)C2=C(COC2=O)N3)cc1` (centres unmarked) [PT-078]: the inhibition at 10 µM came out at 46.3%.

As to `O=C1OCC2=C1C(c1cccc3ccccc13)c1c(-c3ccco3)n[nH]c1N2` (centres unmarked) [PT-080, 3-(furan-2-yl)-4-(naphthalen-1-yl)-7,8-dihydro-1H-furo[3,4-e]pyrazolo[3,4-b]pyridin-5(4H)-one], the inhibition at 10 µM came to 31.9%. Same read-out and setting: under `CCOC(=O)C1=C(C)Nc2c(C#N)cnn2C1c1cccc2ccccc12` (centres unmarked) [PT-091, ethyl 3-cyano-5-methyl-7-(naphthalen-1-yl)-4,7-dihydropyrazolo[1,5-a]pyrimidine-6-carboxylate] stands 48.4%.
